Reference: article PMC10608985, “Retention Behavior of Anticancer Thiosemicarbazides in Biomimetic Chromatographic Systems and In Silico Calculations” (Molecules, 2023)

Assays:
[1] = HPLC lipophilicity on IAM (immobilized artificial membrane, phosphatidylcholine) stationary phase; type: physicochemical; details: pH 7.4; for Log k IAM: Table S2; for log kw IAM: intercept, linear extrapolation to water; for log kw IAM / -S IAM: ACN/20 mM phosphate buffer; for -S IAM: slope of Soczewiński–Wachtmeister equation
Summary of the method: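 Rexchrom IAM.PC.DD2 column with ACN/20 mM phosphate buffer pH 7.4 (0.15 M KCl), ACN fraction 0.05–0.4 v/v at 0.05 steps, 1 mL/min, UV 280 nm, room temperature; t0 from citric acid. log kw and slope S extrapolated via Soczewiński–Wachtmeister equation.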

[2] = HPLC lipophilicity on cholesterol (Chol) stationary phase; type: physicochemical; details: pH 7.4; for Log k Chol: Table S3; for log kw Chol: intercept, linear extrapolation to water; for log kw Chol / -S Chol: MeOH/20 mM acetate buffer; for -S Chol: slope of Soczewiński–Wachtmeister equation
Summary of the method: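 Cholesterol-bonded column run isocratically with MeOH/20 mM acetate buffer at pH 7.4, MeOH fraction 0.3–0.8 (v/v), 0.35 mL/min, room temperature, UV 280 nm. t0 from citric acid; log kw (intercept) and slope S from Soczewiński–Wachtmeister regression of log k against modifier content.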

[3] = biological target: T1, human serum albumin (HSA) (Homo sapiens, UniProt P02768); test: HPLC on immobilized HSA column, affinity and % plasma–protein binding; type: in vitro ADME; details: for log K HSA: binding equilibrium constant from calibration curve (Equation 8) of log k HSA; for fraction unbound: human, pH 7.4, % plasma–protein binding converted from log K HSA (Equation 10), read-out: %PPB HSA (converted); for log k HSA: retention on HSA column, 50 mM ammonium acetate pH 7.4 / propan-2-ol 85/15 (v/v)
T1 construct: purchased Chiralpac
T1 sequence (P02768 25-609): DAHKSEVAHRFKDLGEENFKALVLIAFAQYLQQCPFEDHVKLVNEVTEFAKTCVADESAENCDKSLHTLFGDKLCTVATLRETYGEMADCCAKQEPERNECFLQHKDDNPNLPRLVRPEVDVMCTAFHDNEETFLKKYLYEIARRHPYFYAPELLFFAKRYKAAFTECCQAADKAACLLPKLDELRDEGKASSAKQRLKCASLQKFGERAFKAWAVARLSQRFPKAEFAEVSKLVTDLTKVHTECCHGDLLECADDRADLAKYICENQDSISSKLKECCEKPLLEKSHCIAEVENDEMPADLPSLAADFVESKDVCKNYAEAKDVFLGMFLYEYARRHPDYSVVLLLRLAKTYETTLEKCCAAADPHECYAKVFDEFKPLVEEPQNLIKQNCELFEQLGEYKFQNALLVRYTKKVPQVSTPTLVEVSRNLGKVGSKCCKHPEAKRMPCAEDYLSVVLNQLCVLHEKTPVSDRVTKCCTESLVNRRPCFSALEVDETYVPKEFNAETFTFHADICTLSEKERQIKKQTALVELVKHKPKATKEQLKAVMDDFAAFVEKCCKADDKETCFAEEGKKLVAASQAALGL
Summary of the method: (§1)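 Retention (log k) on immobilized-protein HPLC columns, 50 mM ammonium acetate pH 7.4 with propan-2-ol (85/15 for AGP), UV 280 nm, room temperature. log K read from drug calibration curves, then converted to %PPB.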

[4] = system: α1-acid glycoprotein (AGP); test: HPLC on immobilized AGP column, affinity and % plasma–protein binding; type: in vitro ADME, human; details: for log K AGP: binding equilibrium constant from calibration curve (Equation 9) of log k AGP; for fraction unbound: human, pH 7.4, % plasma–protein binding converted from log K AGP (Equation 10), read-out: %PPB AGP (converted); for log k AGP: retention on AGP column, 50 mM ammonium acetate pH 7.4 / propan-2-ol 85/15 (v/v)
Summary of the method: as §1

[5] = parameters: method as in Kozyra et al. [31]; details: MeOH/20 mM acetate buffer, pH 7.4, ref Kozyra et al. [31], cited from earlier work; for log kw C-18: intercept of Soczewiński–Wachtmeister equation (water as mobile phase); for -S C-18: slope of Soczewiński–Wachtmeister equation

| Log k IAM ([1]; ACN 0.10 v/v in mobile phase) | Log k IAM ([1]; ACN 0.15 v/v in mobile phase) | Log k IAM ([1]; ACN 0.20 v/v in mobile phase) | Log k IAM ([1]; ACN 0.25 v/v in mobile phase) | Log k IAM ([1]; ACN 0.30 v/v in mobile phase) | Log k IAM ([1]; ACN 0.35 v/v in mobile phase) | log kw IAM [1] | -S IAM [1] | Log k Chol ([2]; MeOH 0.35 v/v in mobile phase) | Log k Chol ([2]; MeOH 0.40 v/v in mobile phase) | Log k Chol ([2]; MeOH 0.45 v/v in mobile phase) | Log k Chol ([2]; MeOH 0.50 v/v in mobile phase) | Log k Chol ([2]; MeOH 0.60 v/v in mobile phase) | Log k Chol ([2]; MeOH 0.80 v/v in mobile phase) | log kw Chol [2] | -S Chol [2] | log K HSA [3] | fraction unbound [3] | log k HSA [3] | log K AGP [4] | Compound | also measured |
| --- | --- | --- | --- | --- | --- | --- | --- | --- | --- | --- | --- | --- | --- | --- | --- | --- | --- | --- | --- | --- | --- |
| 0.876 | 0.565 | 0.312 | 0.024 | -0.274 | -0.441 | 1.4283 | 5.5312 | 0.957 | 0.699 | 0.487 | 0.184 | -0.057 | -1.065 | 2.4598 | 4.3726 | 1.1581 | 0.056 | 0.8615 | 0.5586 | O=C(COc1ccccc1)NNC(=S)Nc1cccc(F)c1 [Compound 5] | Log k IAM ([1]; ACN 0.05 v/v in mobile phase): 1.193; fraction unbound [4]: 0.209; log k AGP [4]: 0.4328; log kw C-18 [5]: 2.4592; -S C-18 [5]: 4.7921 |
| 1.022 | 0.794 | 0.515 | 0.291 | -0.138 | -0.209 | 1.5588 | 5.2422 | 0.917 | 0.759 | 0.461 | 0.198 | -0.068 | -1.020 | 2.3437 | 4.1573 | 1.2059 | 0.049 | 0.9070 | 0.5523 | O=C(COc1ccccc1)NNC(=S)Nc1ccccc1Cl [Compound 3] | Log k Chol ([2]; MeOH 0.30 v/v in mobile phase): 1.024; fraction unbound [4]: 0.211; log k AGP [4]: 0.4257; log kw C-18 [5]: 2.3929; -S C-18 [5]: 4.5312 |
